In brackets after ≈: the same amount, converted by molar mass. Activity calls are given as the source filed them. No cut-off for these calls is given here.
What was measured:
[1] = Solubility of compound in FaSSIF incubated for 24 hrs by HPLC analysis; format: ADME
[2] = biological target: Cholinesterase (Equus caballus, UniProt P81908); test: Inhibition of horse serum BChE using BTC iodide as substrate preincubated for 5 mins followed by substrate addition measured after 2 mins by Ellman's method
Sequence of Cholinesterase (Equus caballus, UniProt P81908) (P81908 whole entry): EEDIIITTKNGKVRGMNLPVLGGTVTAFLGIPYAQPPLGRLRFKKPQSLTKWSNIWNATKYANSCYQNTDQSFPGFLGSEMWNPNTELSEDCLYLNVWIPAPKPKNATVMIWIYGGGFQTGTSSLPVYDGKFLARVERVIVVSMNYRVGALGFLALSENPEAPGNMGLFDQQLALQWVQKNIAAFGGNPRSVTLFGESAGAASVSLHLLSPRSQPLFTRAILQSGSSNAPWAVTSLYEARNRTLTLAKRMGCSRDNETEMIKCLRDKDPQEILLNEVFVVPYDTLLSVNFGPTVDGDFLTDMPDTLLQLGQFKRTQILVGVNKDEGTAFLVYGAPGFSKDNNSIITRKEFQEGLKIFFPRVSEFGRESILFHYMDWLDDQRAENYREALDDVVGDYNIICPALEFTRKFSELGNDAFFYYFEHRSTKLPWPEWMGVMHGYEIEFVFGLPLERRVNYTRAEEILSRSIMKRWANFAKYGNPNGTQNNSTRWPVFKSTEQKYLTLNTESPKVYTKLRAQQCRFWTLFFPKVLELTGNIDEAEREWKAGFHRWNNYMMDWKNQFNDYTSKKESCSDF

[3] = tested on: PC-12; test: Neuroprotective activity in rat PC12 cells assessed as cell viability pretreated for 2 hrs followed by H2O2 addition measured after 24 hrs by MTT assay; format: functional, cell-based; details: time 26.0 hrs
[4] = tested on: HT-22; test: Cytotoxicity against mouse HT-22 cells assessed as survival rate at 100 uM incubated for 24 hrs by MTT assay relative to control; format: functional; details: read-out: Survival
[5] = Permeability of compound at 50 ug/ml incubated for 18 hrs by PAMPA; format: ADME; details: dose 50 µg/ml, read-out: permeability
[6] = Metabolic stability in human liver microsomes assessed as compound metabolism at 2 uM measured for 60 mins by LC-MS/MS analysis; format: ADME, Microsome; details: read-out: Drug metabolism
[7] = Acute toxicity in ICR mouse assessed as animal death at 1 g/kg, IG; details: in vivo, po, 1000 mg/kg
[8] = tested on: PC-12; test: Cytotoxicity against rat PC12 cells assessed as survival rate at 100 uM incubated for 24 hrs by MTT assay relative to control; format: functional; details: read-out: Survival
[9] = Cytotoxicity against human L02 cells assessed as survival rate at 100 uM incubated for 24 hrs by MTT assay relative to control; format: toxicity, cell-based; details: read-out: Survival
[10] = Acute toxicity in ICR mouse assessed as animal growth at 1 g/kg, IG; details: in vivo, po, 1000 mg/kg
[11] = tested on: SH-SY5Y; test: Neuroprotective activity against amyloid beta (1 to 42)-induced neuronal death in human SH-SY5Y cells assessed as cell viability pretreated for 1 hr followed by amyloid beta (1 to 42) addition measured after 24 hrs by MTT assay; format: functional, cell-based; details: dose 1-10 µM, time 25.0 hrs
[12] = tested on: SH-SY5Y; test: Cytotoxicity against human SH-SY5Y cells assessed as survival rate at 100 uM incubated for 24 hrs by MTT assay relative to control; format: functional; details: read-out: Survival
[13] = biological target: Cholinesterase (Homo sapiens, UniProt P06276); test: Inhibition of human BChE using BTC iodide as substrate preincubated for 5 mins followed by substrate addition measured after 2 mins by Ellman's method
Sequence of Cholinesterase (Homo sapiens, UniProt P06276) (P06276 whole entry): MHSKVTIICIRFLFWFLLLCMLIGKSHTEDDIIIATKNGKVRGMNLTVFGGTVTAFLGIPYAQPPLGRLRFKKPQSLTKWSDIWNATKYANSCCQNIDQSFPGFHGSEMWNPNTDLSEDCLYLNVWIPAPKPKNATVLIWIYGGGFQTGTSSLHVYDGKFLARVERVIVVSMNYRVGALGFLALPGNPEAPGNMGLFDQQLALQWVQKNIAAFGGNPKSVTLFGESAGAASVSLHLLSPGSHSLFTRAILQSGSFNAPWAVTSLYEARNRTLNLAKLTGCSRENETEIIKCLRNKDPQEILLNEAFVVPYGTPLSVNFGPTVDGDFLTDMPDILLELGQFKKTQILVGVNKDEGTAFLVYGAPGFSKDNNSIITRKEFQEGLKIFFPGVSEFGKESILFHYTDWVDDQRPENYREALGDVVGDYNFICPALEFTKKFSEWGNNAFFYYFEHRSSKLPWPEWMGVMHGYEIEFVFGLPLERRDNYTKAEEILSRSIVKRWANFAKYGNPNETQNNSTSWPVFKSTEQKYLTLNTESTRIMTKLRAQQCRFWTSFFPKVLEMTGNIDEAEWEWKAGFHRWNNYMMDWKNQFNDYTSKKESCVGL

[14] = tested on: BV-2; test: Cytotoxicity against mouse BV-2 cells assessed as survival rate at 100 uM incubated for 24 hrs by MTT assay relative to control; format: functional; details: read-out: Survival
[15] = tested on: Mus musculus; test: Cognitive enhancing effect in Amyloid beta (1 to 42)-treated ICR mouse assessed as reduction in trajectory uncertainty at 10 mg/kg, po administered daily measured after 7 to 12 days by Morris water maze test; format: functional, organism-based; details: time 7-12 day
[16] = tested on: Mus musculus; test: Cognitive enhancing effect in Amyloid beta (1 to 42)-treated ICR mouse assessed as shorter arrival time at 10 mg/kg, po administered daily measured after 7 to 12 days by Morris water maze test; format: functional, organism-based; details: time 7-12 day
[17] = Metabolic stability in human liver microsomes assessed as compound remaining at 2 uM measured after 12.8 mins by LC-MS/MS analysis; format: ADME, Microsome; details: read-out: Activity
[18] = Tmax in Sprague-Dawley rat at 10 mg/kg, po measured for 1 to 1440 mins by LC-MS/MS analysis; format: ADME, organism-based; details: in vivo, time 1-1440 min
[19] = MRT (infinity) in Sprague-Dawley rat at 10 mg/kg, po measured for 1 to 1440 mins by LC-MS/MS analysis; format: ADME, organism-based; details: in vivo, time 1-1440 min
[20] = AUC (0 to infinity) in Sprague-Dawley rat at 10 mg/kg, po measured for 1 to 1440 mins by LC-MS/MS analysis; format: ADME, organism-based; details: in vivo, time 1-1440 min
[21] = Half life in Sprague-Dawley rat at 10 mg/kg, po measured for 1 to 1440 mins by LC-MS/MS analysis; format: ADME, organism-based; details: in vivo, time 1-1440 min
[22] = AUC (0 to t) in Sprague-Dawley rat at 10 mg/kg, po measured for 1 to 1440 mins by LC-MS/MS analysis; format: ADME, organism-based; details: in vivo, time 1-1440 min
[23] = Cmax in Sprague-Dawley rat at 10 mg/kg, po measured for 1 to 1440 mins by LC-MS/MS analysis; format: ADME, organism-based; details: in vivo, po, 10 mg/kg, time 1-1440 min
[24] = Oral bioavailability in Sprague-Dawley rat at 10 mg/kg measured for 1 to 1440 mins by LC-MS/MS analysis; format: ADME, organism-based; details: in vivo, time 1-1440 min
[25] = tested on: HT-22; test: Neuroprotective activity against glutamate-induced excitotoxicity in mouse HT-22 cells assessed as cell viability at 1 to 10 uM pretreated for 1 hr followed by glutamate addition measured after 24 hrs by MTT assay; format: functional, cell-based; details: dose 1-10 µM, time 25.0 hrs
[26] = tested on: BV-2; test: Cytotoxicity against mouse BV-2 cells assessed as survival rate incubated for 24 hrs by MTT assay; format: functional, cell-based; details: BV-2, 24 h
[27] = tested on: SH-SY5Y; test: Cytotoxicity against human SH-SY5Y cells assessed as survival rate incubated for 24 hrs by MTT assay; format: functional, cell-based

Row | Structure (SMILES) | solubility at 24 h [1] | IC50 [2] | further results
1 | COC(=O)c1cncc(NC(=O)Cn2c(-c3nonc3N)nc3ccccc32)c1 | 211 µM (≈ 83 µg/mL) | 43 nM | –
2 | Nc1nonc1-c1nc2ccccc2n1CC(=O)Nc1ccc(CN2CCOCC2)cc1 | 3050 µM (≈ 1320 µg/mL) | 14 nM | Activity [3]: Dose-Dependent Effect; viability at 100 µM [4]: 66.5%; Papp at 18 h, 50 ug/ml [5]: 5.38 ×10⁻⁶ cm/s; metabolised at 1 h, 2 µM [6]: < 15%; Activity [7]: Non-Toxic; viability at 100 µM [8]: 101%; viability at 24 h, 100 µM [9]: 114%; Activity [10]: Non-Toxic; Activity [11]: Dose-Dependent Effect; viability at 100 µM [12]: 131%; IC50 [13]: 106 nM; viability at 100 µM [14]: 78.2%
3 | Nc1nonc1-c1nc2ccccc2n1CC(=O)Nc1cncc(Br)c1 | 476 µM (≈ 197 µg/mL) | 15.4 nM | IC50 [13]: 119 nM
4 | COc1cc2c(cc1OC)C(=O)C(CC1CCN(Cc3ccccc3)CC1)C2 (configuration not stated) | – | – | Activity [15]: Active; Activity [16]: Active
5 | Nc1nonc1-c1nc2ccccc2n1CC(=O)Nc1cccc(C(=O)O)c1 | ≥ 5290 µM | 1970 nM | –
6 | Nc1nonc1-c1nc2ccccc2n1CC(=O)Nc1cccc(N2CCCC2)c1 | 104 µM (≈ 42 µg/mL) | 5.57 nM | IC50 [13]: 2.26 nM
7 | Nc1nonc1-c1nc2ccccc2n1CC(=O)Nc1ccc(N2CCCCC2)cc1 | 86.2 µM (≈ 36 µg/mL) | 168 nM | –
8 | Nc1nonc1-c1nc2ccccc2n1CC(=O)Nc1ccc(CC(=O)N2CCOCC2)cc1 | 951 µM (≈ 439 µg/mL) | 123 nM | –
9 | Nc1nonc1-c1nc2ccccc2n1CC(=O)Nc1ccccc1N1CCOCC1 | 536 µM (≈ 225 µg/mL) | 2470 nM | –
10 | COC(=O)c1ccnc(NC(=O)Cn2c(-c3nonc3N)nc3ccccc32)c1 | 175 µM (≈ 68.8 µg/mL) | 33.1 nM | –
11 | CN1CCN(Cc2ccc(NC(=O)Cn3c(-c4nonc4N)nc4ccccc43)cc2)CC1 | 2660 µM (≈ 1190 µg/mL) | 99.8 nM | –
12 | C[C@]12CC[C@H]3[C@@H](CCC4=CC(=O)CC[C@@]43C)[C@@H]1CC[C@@H]2O [TESTOSTERONE] | – | – | remaining at 0.2133 h, 2 µM [17]: 50%
13 | Nc1nonc1-c1nc2ccccc2n1CC(=O)Nc1cccc(N2CCOCC2)c1 | 1270 µM (≈ 534 µg/mL) | 49.5 nM | –
14 | CN1CCN(C(=O)c2ccc(NC(=O)Cn3c(-c4nonc4N)nc4ccccc43)cc2)CC1 | 1020 µM (≈ 471 µg/mL) | 84 nM | –
15 | Nc1nonc1-c1nc2ccccc2n1CC(=O)Nc1ccncc1 | 474 µM (≈ 159 µg/mL) | 172 nM | –
16 | Nc1nonc1-c1nc2ccccc2n1CC(=O)Nc1cncc(C(F)(F)F)c1 | 660 µM (≈ 266 µg/mL) | 94.5 nM | –
17 | CN1CCN(C(=O)Cc2ccc(NC(=O)Cn3c(-c4nonc4N)nc4ccccc43)cc2)CC1 | 1770 µM (≈ 842 µg/mL) | 609 nM | –

Row | Structure (SMILES) | solubility at 24 h [1] | IC50 [2] | further results
18 | Nc1nonc1-c1nc2ccccc2n1CC(=O)Nc1ccc(N2CCOCC2)cc1 | 861 µM (≈ 361 µg/mL) | 481 nM | –
19 | Nc1nonc1-c1nc2ccccc2n1CC(=O)Nc1cccc(CC(=O)N2CCOCC2)c1 | 728 µM (≈ 336 µg/mL) | 193 nM | –
20 | Nc1nonc1-c1nc2ccccc2n1CC(=O)Nc1cncc(F)c1 | 512 µM (≈ 181 µg/mL) | 99.4 nM | –
21 | Nc1nonc1-c1nc2ccccc2n1CC(=O)Nc1cnc2ccccc2c1 | 231 µM (≈ 89 µg/mL) | – | Tmax [18]: 0.158 h
22 | CN1CCN(c2ccccc2NC(=O)Cn2c(-c3nonc3N)nc3ccccc32)CC1 | 483 µM (≈ 209 µg/mL) | 524 nM | –
23 | Nc1nonc1-c1nc2ccccc2n1CC(=O)Nc1ccccn1 | 322 µM (≈ 108 µg/mL) | 1320 nM | –
24 | Nc1c2c(nc3ccccc13)CCCC2 [TACRINE] | 1440 µM (≈ 285 µg/mL) | – | –
25 | Nc1nonc1-c1nc2ccccc2n1CC(=O)Nc1cccnc1 | 373 µM (≈ 125 µg/mL) | 154 nM | –
26 | CN1CCN(C(=O)Cc2cccc(NC(=O)Cn3c(-c4nonc4N)nc4ccccc43)c2)CC1 | 1330 µM (≈ 631 µg/mL) | 1940 nM | –
27 | N#Cc1cc(Br)cc(NC(=O)Cn2c(-c3nonc3N)nc3ccccc32)c1 | 379 µM (≈ 166 µg/mL) | – | Tmax [18]: 0.18 h; MRT inf [19]: 7.37 h; AUC(0-inf) [20]: 3780 ng·h/mL; half-life [21]: 4.74 h; AUC(0-t) [22]: 3360 ng·h/mL; Cmax [23]: 975.05 ng/mL; bioavailability [24]: 23.6%
28 | Nc1nonc1-c1nc2ccccc2n1CC(=O)Nc1cccc(N2CCCCC2)c1 | 74.3 µM (≈ 31 µg/mL) | 4.71 nM | IC50 [13]: 21.2 nM
29 | CN1CCN(c2ccc(NC(=O)Cn3c(-c4nonc4N)nc4ccccc43)cc2)CC1 | 1360 µM (≈ 588 µg/mL) | 92.3 nM | –
30 | Nc1nonc1-c1nc2ccccc2n1CC(=O)NC1CCCCC1 | 232 µM (≈ 79 µg/mL) | 3520 nM | –
31 | Nc1nonc1-c1nc2ccccc2n1CC(=O)Nc1ccc(C(=O)N2CCOCC2)cc1 | 467 µM (≈ 209 µg/mL) | 67 nM | –
32 | CN1CCN(c2cccc(NC(=O)Cn3c(-c4nonc4N)nc4ccccc43)c2)CC1 | 2820 µM (≈ 1220 µg/mL) | 19.4 nM | Activity [3]: Dose-Dependent Effect; viability at 100 µM [4]: 89.5%; Activity [25]: Active; Papp at 18 h, 50 ug/ml [5]: 3.57 ×10⁻⁶ cm/s; metabolised at 1 h, 2 µM [6]: < 15%; Activity [7]: Non-Toxic; viability at 100 µM [8]: 82.6%; viability at 24 h, 100 µM [9]: 102%; Activity [10]: Non-Toxic; IC50 [26]: 17000 nM; IC50 [13]: 121 nM; IC50 [27]: 10300 nM
33 | Nc1nonc1-c1nc2ccccc2n1CC(=O)Nc1cncc(Cl)c1 | 462 µM (≈ 171 µg/mL) | 31.6 nM | –
